From US20090203685A1, “ANTI-PROLIFERATIVE COMPOUNDS FROM A 3-ARYL-COUMARINE OR 3-ARYL-QUINOLIN-2-ONE AND USES THEREOF” (EOS (ETHICAL ONCOLOGY SCIENCE) S.P.A., priority 2006, published 2009) come the findings set out here.

This assay deals with lung, prostate, breast, colon, melanoma, and myeloid tumor cells. Nature of the assay: Inhibition of cell proliferation in vitro, panel of tumor cells (Example 3). It counts as cell-based. Particulars: Homo sapiens; range over tumor cell lines, printed as 50 nM to 1 μM; 72 h; read-out: IC50s of growth inhibition. The method, then:
2C Proliferation test ViaLight® HS High Sensitivity Cytotoxicity and Cell Proliferation BioAssay Kit
This protocol allows the determination of the cytostatic and cytotoxic activities of compounds to be tested on mammalian cells in culture and was carried out essentially according to the manufacturer's recommendations.
Cells are suspended in 15 mL of their respective media and are enumerated. They are then diluted in their media in order to obtain: • 2500 cells per 90 μL per well for MRC5 cells • 5000 cells per 90 μL per well for all other cell lines. Cells are then seeded in a 96 well plate, and incubated at least 4 hours in the incubator at 37° C. in 5% CO2. […]
Then, 100 μL of test buffer (test Vialight® test buffer) is added in each well and the control plate is incubated during 2 minutes. The luminescence is read in each well. The mean luminescence for each type of cells is called T0. […]
Then, 100 μL of test buffer (test Vialight® test buffer) is added in each well and the plates are incubated during 2 minutes. The luminescence is read in each well. For each type of cell, the mean luminescence in the well not containing the compound is called C72 and the mean luminescence in well containing a given concentration of a compound to be tested is called T72. […]

Turning to `COc1cc(NC(=S)NC(=O)/C=C/c2ccco2)ccc1-c1cc2ccccc2oc1=O` [Compound 01, (2E)-3-(2-furyl)-N-({[3-methoxy-4-(2-oxo-2H-chromen-3-yl)phenyl]amino}carbonothioyl)acrylamide], the IC50 lay within 0.05 to 1 µM.
